Earlier results on 1 compound are cited in US11497806B2, “Immunization agents and methods of use” (priority 2014, dated 2022).

Read-outs that look alike come from different tables or passages of the source.

The subject of one data set is luciferase target gene. To be noted: heat treatment in the presence but not in the absence of mifepristone; FIG. 2.
Another data set concerns the target T1, transactivator (Homo sapiens, UniProt P06401).
T1 construct: host or cells: rat (in vivo)
To be noted: rats.

T1 sequence (P06401 640-891, added parts left off): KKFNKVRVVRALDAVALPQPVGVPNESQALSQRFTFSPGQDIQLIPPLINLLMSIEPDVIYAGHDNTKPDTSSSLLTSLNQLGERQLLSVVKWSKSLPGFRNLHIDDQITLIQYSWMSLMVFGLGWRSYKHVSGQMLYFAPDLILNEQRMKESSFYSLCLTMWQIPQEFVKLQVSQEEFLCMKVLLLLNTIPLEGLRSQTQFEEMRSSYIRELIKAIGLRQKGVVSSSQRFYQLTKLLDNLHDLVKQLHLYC

As for `CC#C[C@]1(O)CC[C@H]2[C@@H]3CCC4=CC(=O)CCC4=C3[C@@H](c3ccc(N(C)C)cc3)C[C@@]21C` [mifepristone], the “Target gene expression after heat treatment” value in the data set on luciferase target gene is listed as “resulted in activation of target gene expression”. Moreover, the entries for the “Amount reaching an effective concentration” value at transactivator (i.p.) and on transactivator (orally) were 5 µg/kg and “about 10 μg/kg”, respectively.
